We go through three compounds from patent EP1806348A2, “Pyrido (2,3-D)Pyrimidines as inhibitors of cellular proliferation” (Warner-Lambert Company LLC, priority 1997, dated 1998).

Molecules are shown by their SMILES.

One data set concerns the target cdk4/D (Homo sapiens, UniProt P11802). Briefly: Cyclin-dependent kinase 4 (cdk4) enzyme assay, 32P incorporation into retinoblastoma. Format: biochemical. The conditions noted are these: Table 1; 25 µM ATP, retinoblastoma substrate. As for the experimental part:
A typical assay, for instance, measures inhibitory activity against the cyclin D dependent kinase 4 enzyme (cdk4/D). […] The cdk 4 assay was carried out as follows.
All components except the ATP were added to the wells, and the plate was placed on a plate mixer for 2 minutes. […] The reaction was terminated by addition of 0.1 mL of 20% trichloroacetic acid (TCA). The plate was kept at 4°C for at least 1 hour to allow the substrate to precipitate. The wells were then washed five times with 0.2 mL of 10% TCA and ^32P incorporation was determined with a beta plate counter (Wallac Inc., Gaithersburg, MD).

The next data set addresses cdk2/cyclinA (Homo sapiens, UniProt P24941). Briefly: Cyclin-dependent kinase assay (cdk2/cyclinA). It is filed as biochemical. The settings on record: Table 1. As for the experimental part: (§1) All components except the ATP were added to the wells, and the plate was placed on a plate mixer for 2 minutes. […] The reaction was terminated by addition of 0.1 mL of 20% TCA. The plate was kept at 4°C for at least 1 hour to allow the substrate to precipitate. The wells were then washed five times with 0.2 mL of 10% TCA and ^32P incorporation determined with a beta plate counter (Wallac Inc., Gaithersburg, MD).

In a further data set the target is cdk2/cyclinE (Homo sapiens, UniProt P24941). Briefly: Cyclin-dependent kinase assay (cdk2/cyclinE). It is filed as biochemical. The conditions noted are these: Table 1; read-out: cdk2/E IC50. As for the experimental part:
as §1

The target in another data set is c-Src (Homo sapiens, UniProt P12931). Briefly: c-Src protein kinase assay. Format: biochemical. The settings on record: Table 5. As for the experimental part: C-Src kinase was purified from baculovirus infected insect cell lysates using an antipeptide monoclonal antibody directed against the N-terminal amino acids (amino acids 2-17) of c-Src. The antibody, covalently linked to 0.65 µm latex beads, was added to a suspension of insect cell lysis buffer comprised of 150 mM NaCl, 50 mM Tris pH 7.5, 1 mM DTT, 1% NP-40,2 mM EGTA, 1 mM sodium vanadate, 1 mM PMSF, 1 µg/mL each of leupeptin, pepstatin, and aprotinin. Insect cell lysate containing c-Src protein was incubated with these beads for 3 to 4 hours at 4°C with rotation. At the end of the lysate incubation, the beads were rinsed three times in lysis buffer, resuspended in lysis buffer containing 10% glycerol, and frozen. These latex beads were thawed, rinsed three times in assay buffer (40 mM Tris, pH 7.5, […]) and suspended in the same buffer. In a Millipore 96-well plate with a 0.65 µm polyvinylidine membrane bottom were added the reaction components: 10 µL c-Src beads, 10 µL of 2.5 mg/mL poly GluTyr substrate, 5 µM ATP containing 0.2 µCi labeled ^32P-ATP, 5 µL DMSO containing inhibitors or as a solvent control, and buffer to make the final volume 125 µL. The reaction was started at room temperature by addition of the ATP and quenched 10 minutes later by the addition of 125 µL of 30% TCA, 0.1 M sodium pyrophosphate for 5 minutes on ice. […] The filters were then punched, counted in a liquid scintillation counter, and the data examined for inhibitory activity in comparison to a known inhibitor such as erbstatin. […]
c-Src, sequence (P12931 whole entry, the tested form may be a part): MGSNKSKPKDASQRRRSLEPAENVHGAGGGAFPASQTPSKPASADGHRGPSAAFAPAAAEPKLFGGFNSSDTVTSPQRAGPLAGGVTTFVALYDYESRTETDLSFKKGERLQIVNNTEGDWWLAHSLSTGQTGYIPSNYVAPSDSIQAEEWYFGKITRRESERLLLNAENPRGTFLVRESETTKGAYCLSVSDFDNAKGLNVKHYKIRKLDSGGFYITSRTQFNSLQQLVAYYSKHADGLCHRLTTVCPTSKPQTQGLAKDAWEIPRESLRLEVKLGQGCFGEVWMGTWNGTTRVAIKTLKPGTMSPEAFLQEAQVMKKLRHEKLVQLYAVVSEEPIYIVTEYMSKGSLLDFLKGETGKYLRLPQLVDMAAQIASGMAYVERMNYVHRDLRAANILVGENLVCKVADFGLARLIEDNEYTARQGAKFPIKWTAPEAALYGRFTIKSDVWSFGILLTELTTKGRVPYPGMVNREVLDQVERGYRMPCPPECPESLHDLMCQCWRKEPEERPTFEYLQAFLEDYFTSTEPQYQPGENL

For a further data set, the target named is cdc2/cyclinB (Homo sapiens, UniProt P06493). Briefly: Cyclin-dependent kinase assay (cdc2/cyclinB). Format: biochemical. The settings on record: Table 1; read-out: cdk1/B IC50. The protocol: as §1
cdc2/cyclinB, sequence (P06493 whole entry): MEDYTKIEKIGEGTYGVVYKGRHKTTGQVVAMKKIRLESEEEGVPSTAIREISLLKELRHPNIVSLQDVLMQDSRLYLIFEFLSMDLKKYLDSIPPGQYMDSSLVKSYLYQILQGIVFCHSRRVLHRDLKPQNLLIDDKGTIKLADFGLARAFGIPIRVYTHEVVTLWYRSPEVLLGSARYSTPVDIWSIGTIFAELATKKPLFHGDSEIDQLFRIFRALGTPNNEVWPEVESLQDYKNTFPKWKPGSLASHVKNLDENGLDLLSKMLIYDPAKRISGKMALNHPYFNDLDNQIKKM
cdc2/cyclinB, sequence (P14635 whole entry, further chain): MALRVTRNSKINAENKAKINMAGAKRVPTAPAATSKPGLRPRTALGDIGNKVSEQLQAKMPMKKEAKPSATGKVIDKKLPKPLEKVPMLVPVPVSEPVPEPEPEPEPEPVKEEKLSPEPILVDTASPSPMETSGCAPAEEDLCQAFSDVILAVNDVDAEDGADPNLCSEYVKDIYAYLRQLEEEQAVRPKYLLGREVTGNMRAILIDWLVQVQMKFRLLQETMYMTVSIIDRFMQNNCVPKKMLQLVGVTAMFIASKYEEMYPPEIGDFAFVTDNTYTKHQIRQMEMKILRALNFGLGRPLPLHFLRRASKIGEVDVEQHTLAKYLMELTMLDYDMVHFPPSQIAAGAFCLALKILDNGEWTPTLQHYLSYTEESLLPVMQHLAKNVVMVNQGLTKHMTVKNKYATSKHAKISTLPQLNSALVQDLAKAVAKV
Data set [1] has as its system MCF-7 human mammary tumor xenografts. Briefly: MCF-7 tumor xenograft growth inhibition in mice. It is filed as in vivo, female nude mice. The settings on record: doses of 5 to 20 mg/kg, schedule q12h × 2; days 1-14.
The nature of data set [2]: Plasma levels in mice after dosing. It is filed as in vivo, nude mice. The conditions noted are these: at 30 minutes following dosing. The protocol: For example, the compound of Example 60 was administered orally at 5 mg/kg to mice, and plasma levels of about 200 nM were measured at 30 minutes following dosing. The compound was also administered intraperitoneally at 12 mg/kg and produced a peak plasma concentration of 10,000 nM at 30 minutes following dosing.

The target in another data set is cdk6/D2 (Homo sapiens, UniProt Q00534). Briefly: cdk6/D2 enzyme assay, similar to cdk4 assay. The conditions noted are these: read-out: IC50 against cdk6/D2. Format: biochemical. The protocol: (§2) The total volume was 0.1 mL containing a final concentration of 20 mM TRIS (tris[hydroxymethyl]aminomethane), at pH 7.4, 50 mM NaCl, 1 mM dithiothreitol, 10 mM MgCl2, 25 µM ATP containing 0.25 µCi of [^32P]ATP, 20 ng of cdk4, 1 µg of retinoblastoma, and appropriate dilutions of a compound of the present invention. All components except the ATP were added to the wells, and the plate was placed on a plate mixer for 2 minutes. The reaction was started by adding [^32P]ATP and the plate was incubated at 25°C for 15 minutes. The reaction was terminated by addition of 0.1 mL of 20% trichloroacetic acid (TCA). The plate was kept at 4°C for at least 1 hour to allow the substrate to precipitate. The wells were then washed five times with 0.2 mL of 10% TCA and ^32P incorporation was determined with a beta plate counter (Wallac Inc., Gaithersburg, MD).
cdk6/D2, sequence (Q00534 whole entry): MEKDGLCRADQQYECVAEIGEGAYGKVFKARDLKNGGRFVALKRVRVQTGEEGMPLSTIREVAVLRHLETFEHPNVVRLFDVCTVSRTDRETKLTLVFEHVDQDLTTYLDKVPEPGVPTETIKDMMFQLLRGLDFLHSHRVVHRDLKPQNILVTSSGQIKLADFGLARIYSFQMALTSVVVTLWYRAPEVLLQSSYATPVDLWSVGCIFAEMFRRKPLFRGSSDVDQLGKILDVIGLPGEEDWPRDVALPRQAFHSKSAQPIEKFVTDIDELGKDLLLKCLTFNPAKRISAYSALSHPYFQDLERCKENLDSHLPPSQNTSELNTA
cdk6/D2, sequence (P30279 whole entry, further chain): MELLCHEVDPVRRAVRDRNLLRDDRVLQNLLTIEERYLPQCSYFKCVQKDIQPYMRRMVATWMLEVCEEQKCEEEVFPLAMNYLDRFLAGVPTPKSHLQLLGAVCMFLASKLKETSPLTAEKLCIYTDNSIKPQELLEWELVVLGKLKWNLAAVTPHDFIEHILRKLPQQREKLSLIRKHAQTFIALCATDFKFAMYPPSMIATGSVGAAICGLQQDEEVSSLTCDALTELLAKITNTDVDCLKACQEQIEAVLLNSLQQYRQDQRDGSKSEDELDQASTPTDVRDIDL
(§3) Several of the invention compounds have also shown good inhibitory activity against cdk6/D2 and cdk6/D3 enzymes. These assays are carried out in a manner similar to that described above for cdk4, by simply employing the appropriate cdk6 kinase enzyme.

The next data set deals with cdk6/D3 (Homo sapiens, UniProt Q00534). Briefly: cdk6/D3 enzyme assay, similar to cdk4 assay. Format: biochemical. The settings on record: read-out: IC50 against cdk6/D3. The protocol: as §2, §3
cdk6/D3, sequence (P30281 whole entry): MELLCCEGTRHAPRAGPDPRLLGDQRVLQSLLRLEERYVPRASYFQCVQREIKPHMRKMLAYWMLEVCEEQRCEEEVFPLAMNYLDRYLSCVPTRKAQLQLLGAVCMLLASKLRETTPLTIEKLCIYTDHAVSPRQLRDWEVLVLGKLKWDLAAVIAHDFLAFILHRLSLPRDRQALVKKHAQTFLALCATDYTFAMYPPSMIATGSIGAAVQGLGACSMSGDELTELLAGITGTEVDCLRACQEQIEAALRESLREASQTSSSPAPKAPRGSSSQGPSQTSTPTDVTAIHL
cdk6/D3, sequence (Q00534 whole entry): as the sequence (Q00534 whole entry) above

cdk4/D, sequence (P11802 whole entry): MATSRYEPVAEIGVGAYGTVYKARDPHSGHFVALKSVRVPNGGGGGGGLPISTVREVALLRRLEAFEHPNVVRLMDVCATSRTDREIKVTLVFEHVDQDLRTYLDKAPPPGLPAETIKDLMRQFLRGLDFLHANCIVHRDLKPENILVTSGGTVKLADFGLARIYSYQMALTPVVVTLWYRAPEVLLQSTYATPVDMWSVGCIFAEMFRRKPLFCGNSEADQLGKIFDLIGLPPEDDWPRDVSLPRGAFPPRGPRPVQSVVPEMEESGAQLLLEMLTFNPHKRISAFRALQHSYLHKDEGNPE
cdk4/D, sequence (P24385 whole entry, further chain): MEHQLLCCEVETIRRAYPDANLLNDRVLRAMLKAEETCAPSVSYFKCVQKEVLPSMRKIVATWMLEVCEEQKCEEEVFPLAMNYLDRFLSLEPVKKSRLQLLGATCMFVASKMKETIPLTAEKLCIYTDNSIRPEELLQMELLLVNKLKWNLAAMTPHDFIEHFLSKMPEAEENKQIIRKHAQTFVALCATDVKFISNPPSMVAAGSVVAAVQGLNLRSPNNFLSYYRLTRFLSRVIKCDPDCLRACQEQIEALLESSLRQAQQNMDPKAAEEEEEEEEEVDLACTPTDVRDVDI

For `CCN(CC)CCOc1ccc(Nc2ncc3ccc(=O)n(C(C)C)c3n2)cc1` [Example 59, 2-[4-(2-Diethylaminoethoxy)-phenylamino]-8-isopropyl-8H-pyrido[2,3-d]pyrimidin-7-one], the IC50 on cdk4/D amounted to 45 nM; at cdk2/cyclinA, 80 nM; at cdk2/cyclinE, 800 nM; against c-Src, 4430 nM; on cdc2/cyclinB it was 1240 nM.

Regarding `CC(C)n1c(=O)ccc2cnc(Nc3ccc(N4CCN(C)CC4)cc3)nc21` [Example 60, 8-Isopropyl-2-[4-(4-methylpiperazin-1-yl)-phenylamino]-8H-pyrido[2,3-d]pyrimidin-7-one], the IC50 was 32 nM at cdk4/D; 58 nM against cdk2/cyclinA; 270 nM at cdk2/cyclinE; 890 nM against c-Src; 675 nM on cdc2/cyclinB. The tumor growth inhibitions result in data set [1] is reported as “statistically insignificant tumor growth inhibitions”. In data set [2] (intraperitoneally at 12 mg/kg), the peak plasma concentration was 10,000 nM. Also, the concentration at 30 min in data set [2] (nude, mouse, plasma, po, mice, orally at 5 mg/kg) is roughly 200 nM.

As for `O=c1ccc2cnc(Nc3ccc(N4CCC(CCCO)CC4)cc3)nc2n1C1CC2CCC1C2` (stereo not drawn) [Example 214, 8-Bicyclo[2.2.1]hept-2-yl-2-{4-[4-(3-hydroxy-propyl)-piperidin-1-yl]-phenylamino}-8H-pyrido[2,3-d]pyrimidin-7-one], the IC50 at cdk6/D2 is 7.1 nM; at cdk6/D3 it was 13 nM.
